Target: T1, Peroxisome proliferator-activated receptor alpha (Homo sapiens, UniProt Q07869)
T1 sequence (Q07869 whole entry): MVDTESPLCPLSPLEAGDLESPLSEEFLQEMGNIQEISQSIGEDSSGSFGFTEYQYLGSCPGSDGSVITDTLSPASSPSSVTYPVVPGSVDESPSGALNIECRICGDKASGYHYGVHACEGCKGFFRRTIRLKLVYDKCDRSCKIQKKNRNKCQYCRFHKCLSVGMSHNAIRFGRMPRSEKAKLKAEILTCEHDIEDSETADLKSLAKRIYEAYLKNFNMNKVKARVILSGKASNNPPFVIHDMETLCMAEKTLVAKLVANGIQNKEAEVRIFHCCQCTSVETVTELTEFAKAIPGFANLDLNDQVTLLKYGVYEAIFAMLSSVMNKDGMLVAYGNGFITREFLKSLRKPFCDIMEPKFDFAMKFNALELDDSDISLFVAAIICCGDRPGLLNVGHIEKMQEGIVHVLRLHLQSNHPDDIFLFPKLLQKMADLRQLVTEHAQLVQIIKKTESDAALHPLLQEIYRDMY
Experiment: Activity at human PPAR alpha

| Compound | EC50 [nM] |
| --- | --- |
| CCOC(=O)C1=C(c2ccccc2)c2ccc(OC)cc2C1=O | > 100000 |

Target: T2, Peroxisome proliferator-activated receptor gamma (Homo sapiens, UniProt P37231)
T2 sequence (P37231 whole entry): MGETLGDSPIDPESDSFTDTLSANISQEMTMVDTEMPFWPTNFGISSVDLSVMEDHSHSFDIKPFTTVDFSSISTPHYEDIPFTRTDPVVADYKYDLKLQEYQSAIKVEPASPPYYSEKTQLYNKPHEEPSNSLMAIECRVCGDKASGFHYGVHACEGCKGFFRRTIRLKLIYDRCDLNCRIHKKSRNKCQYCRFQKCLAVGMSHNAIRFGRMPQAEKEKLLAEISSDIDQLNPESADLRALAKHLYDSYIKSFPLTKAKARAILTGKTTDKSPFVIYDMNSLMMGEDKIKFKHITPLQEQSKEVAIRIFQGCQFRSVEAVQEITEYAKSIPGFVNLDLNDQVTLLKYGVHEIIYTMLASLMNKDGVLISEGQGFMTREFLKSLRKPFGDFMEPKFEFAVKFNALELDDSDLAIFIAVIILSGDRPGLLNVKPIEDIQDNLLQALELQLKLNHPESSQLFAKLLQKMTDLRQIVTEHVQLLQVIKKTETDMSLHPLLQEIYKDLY
Description: Activity at human PPAR gamma transfected in NIH3T3 cells by luciferase activity assay

| Compound | EC50 [nM] |
| --- | --- |
| CCOC(=O)C1=C(c2ccccc2)c2ccc(OCCCc3ccccc3)cc2C1=O | 50 |
| CCOC(=O)C1=C(C23CC4CC(CC(C4)C2)C3)c2ccc(OC)cc2C1=O | 2500 |
| CCOC(=O)C1=C(c2ccccc2)c2ccc(OC)cc2C1=O | 300 |
| CCOC(=O)C1=C(c2ccccc2)c2ccc(OC)cc2C1 | > 10000 |
| CCOC(=O)CC1=C(c2ccccc2)c2ccc(OC)cc2C1=O | 300 |
| CCOC(=O)C1=C(c2ccccc2)c2ccc(OCc3ccccc3)cc2C1=O | 220 |
| CCOC(=O)C1=C(c2ccccc2)c2ccc(OC)cc2/C1=N/O | > 10000 |
| CCOC(=O)C1=C(c2ccccc2)c2ccc(OCCc3ccccc3)cc2C1=O | 210 |
| CCOC(=O)C1=C(c2ccoc2)c2ccc(OC)cc2C1=O | 1000 |

From ChEMBL document CHEMBL1138934, “Indenone derivatives: a novel template for peroxisome proliferator-activated receptor gamma (PPARgamma) agonists” (J Med Chem, 2006)
